Reference: patent US10537549B2, “Dihydroisoxazole compound for use in controlling sea lice” (Elanco Tiergesundheit AG, priority 2016, dated 2020)

Assays:
[1] = test system: Lepeophtheirus Salmonis (copepodids, MERL resistant strain IoA-01) on Atlantic Salmon; assay: Activity in vivo against Lepeophtheirus salmonis on Atlantic Salmon using in-feed application; details: in-feed 5 mg/kg/day for 7 days
Experimental: Activity In Vivo Against Lepeophtheirus Salmonis on Atlantic Salmon Using in-Feed Application
60 Salmon (Atlantic Salmon, S. salar) of average weight 306.5 g are treated with medicated pellets containing the compound of Example 1 (test compound) at a dose of 5 mg/kg/day during 7 consecutive days. The medicated pellets are prepared by dry coating commercially available fish feed pellets with pre-mix containing the test compound to reach a content of […] test compound in the fish feed, sealing with 1% fish oil and administering at a 1% feeding rate. The treatment is carried out in sea water. After treatment, the fish are challenged with copepodids (the MERL resistant strain IoA-01) on 35, 100 and 150 days post-treatment. During the study the water temperature varies between 7 and 10° C. Fish weight and sea louse numbers are assessed 42, 107 and 157 days post-treatment. Counts are conducted on 30 fish at each sampling occasion.
Efficacy is determined by comparison with a negative control (placebo) group.
Efficacy is calculated using the formula: % Efficacy=100−(100×mean of treatment group/mean of control).
All fish are anaesthetized with 2-phenoxy-ethanol and examined for louse settlement under a dissecting microscope. After counting, fish are returned to the tanks.

[2] = test system: Lepeophtheirus Salmonis at Copepodid Stage; assay: Activity in vitro against Lepeophtheirus salmonis at copepodid stage; details: 1 hour contact, then 48 h in untreated sea water
Experimental: Stir a mixture of 3-[(5S)-5-(3,4,5-trichlorophenyl)-5-(trifluoromethyl)-4H-isoxazol-3-yl]-4,5,6,7-tetrahydro-2-benzothiophene-1-carboxylic acid (15.00 g, 30.08 mmol), 2-amino-N-prop-2-ynyl-acetamide (4.90 g, 33.09 mmol, HCl), 1-[bis(dimethylamino)methylene]-1H-1,2,3-triazolo[4,5-b]pyridinium 3-oxid hexafluorophosphate (13.72 g, 36.10 mmol) and N,N-diisopropylethylamine (11.66 g, 90.24 mmol) in dichloromethane (500 mL) at 25° C. for 12 hours. Use thin layer chromatography (petroleum ether:ethyl acetate=3:1, Rf=0.30) to show the reaction progress. Dilute the mixture in water (500 mL) and extract with dichloromethane (500 mL×3). Wash the organic layer with brine (500 mL), dry over sodium sulfate, filter and concentrate under reduced pressure to dryness. […]

C#CCNC(=O)CNC(=O)c1sc(C2=NO[C@@](c3cc(Cl)c(Cl)c(Cl)c3)(C(F)(F)F)C2)c2c1CCCC2 [Example 1, N-[2-oxo-2-(prop-2-ynylamino)ethyl]-3-[(5S)-5-(3,4,5-trichlorophenyl)-5-(trifluoromethyl)-4H-isoxazol-3-yl]-4,5,6,7-tetrahydro-2-benzothiophene-1-carboxamide]
% Efficacy vs placebo group (sea louse counts) ([1]; challenge 35 days post treatment (counts at 42 days)): 100% | % Efficacy vs placebo group (sea louse counts) ([1]; challenge 100 days post treatment (counts at 107 days)): 100% | % Efficacy vs placebo group (sea louse counts) ([1]; challenge 150 days post treatment (counts at 157 days)): 100% | efficacy (no copepodid moves over a period of 80 seconds) ([2]; 0.5 ng/ml sea water): 100% | minimal effective dose (MED): dose showing 100% efficacy ([2]; serial dilution): ≤ 0.5 ng/ml sea water
